Laboratory results published in patent US20140155327A1, “Process for the Synchronization of Ovulation for Timed Breeding Without Heat Detection” (priority 2003, published 2014).

System: postpartum sows
Assay: Single timed injection 96 hours post-weaning and single timed insemination without estrus detection in postpartum sows (Example 3)
Type: in vivo, swine
Settings: 50 mcg at 96 hours post-weaning
Procedure: Approximately 170 postpartum sows were randomly divided into two equal groups comprised of controls and treated. Following weaning, the controls were detected for estrus and bred following the normal standard operating procedures for the farms on which they resided. The treated sows received a 50 mcg dose of deslorelin in SAIB at 96 hours post-weaning and were bred with a single insemination 28+/−2 hours later with no regard to estrus detection. The sows were examined for pregnancy by ultrasound at 21 days and slaughtered around 28 days post breeding. The entire reproductive tract was removed and corpora lutea and embryos were counted.

CCNC(=O)[C@@H]1CCCN1C(=O)[C@H](CCCN=C(N)N)NC(=O)[C@H](CC(C)C)NC(=O)[C@@H](Cc1c[nH]c2ccccc12)NC(=O)[C@H](Cc1ccc(O)cc1)NC(=O)[C@H](CO)NC(=O)[C@H](Cc1c[nH]c2ccccc12)NC(=O)[C@H](Cc1cnc[nH]1)NC(=O)[C@@H]1CCC(=O)N1 [Deslorelin, deslorelin]
Sows Pregnant (single insemination 28+/-2 hours later, 84 in group): 60 | Embryo Survival (slaughter around 28 days post breeding): 64%
